Measured values: patent US7872101B1, “Modulators of the orphan G protein-coupled receptors GPR78 and GPR26” (Schering Corporation, priority 2006, dated 2011)
Read-outs that look alike come from different tables or passages of the source.

Tests used:
GPR26 [1] = biological target: T1, GPR26 (Homo sapiens, UniProt Q8NDV2); assay: antagonist cre-luc reporter assay, inhibition of GPR26 activation; type: cell-based
T1 construct: Full length open reading frames (ORFS) of GPR78 and GPR26 were obtained with PCR; expressed in transfected cells; host or cells: HEK293/cre-luc
Method: (§1) Screening was performed by using cells transiently expressing GPR26 or GPR78. HEK293/cre-luc cells were harvested by using 0.05% trypsin EDTA solution, and were suspended in complete culture medium at a density of 20 million in 0.4 ml transfection cuvettes. One 1 microgram plasmid construct containing GPR78 or GPR26 cDNA was transfected into reporter cells by electroporation using the GenePulser (Bio-Red Laboratories, Hercules, Calif.). The transfection conditions were: voltage at 200 volts and capacity at 500 microfarads. After electroporation, cells were suspended at a density of 25,000 cells in 25 μl complete medium and placed in a 384-well plate. After 24 hours of transfection, the transfection medium was replaced with fresh complete medium. Empty plasmid vector was transfected as a negative control (mock transfection). The compounds were arranged in 96-well format in eight racks of 80, with one compound per well (250 μl at 10 mM in DMSO). […] By the end of incubation, 25 ul of Bright-Glo™ (Promega, Madison, Wis.) was added into each well. Luciferase activity was determined with a Luminometer (Luminoskan Ascent, Thermo Labsystems), at a speed of 100 milliseconds per well.
(§2) To determine the inhibitory potency of the two molecules, dose-response curves were generated with the same assay method and IC50 values calculated from the curves.

GPR78 [2] = biological target: T2, GPR78 (Homo sapiens, UniProt Q96P69); assay: antagonist cre-luc reporter assay, inhibition of GPR78 activation; type: cell-based
T2 construct: Full length open reading frames (ORFS) of GPR78 and GPR26 were obtained with PCR; expressed in transfected cells; host or cells: HEK293/cre-luc
Method: as §1, §2

GPR78 [3] = biological target: T2, GPR78; assay: cre-luciferase cAMP reporter assay in GPR78-transfected HEK293/cre-luc cells; type: cell-based; settings: for cAMP level compared to buffer control / genistein: isoflavones, FIG. 3; for cAMP stimulation: final concentration 300 μM in 1.5% DMSO, luciferase reporter assay and direct cAMP measurement (Perkin-Elmer kit); for effect on genistein-induced cAMP: FIG. 6A; for cAMP level compared with GPR78-expressing cells stimulated with buffer (Basal): Tyrphostin B42 at 23 μM, Tyrphostin A9 at 24 μM
Method: (§3) HEK293/cre-luc cells were harvested by 0.05% trypsin EDTA buffer, cells re-suspended in complete culture medium 20 million in […] transfection cuvette, 1 microgram receptor plasmid was transfected into reporter cells by electroporation method. The parameter of the GenePulser (Bio-Rad Laboratories, Hercules, Calif.) was set at: voltage 200 volts and capacity 500 microfarads. After electroporation, cells were re-suspended at a density of 25,000 cells in 25 μl complete medium, placed in 384-well plate. After 24 hours of transfection, the transfection medium was replaced with fresh complete medium. Empty plasmid vector was transfected as a negative control (mock transfection).
When inhibitors were used in the assay, they were added 30 minutes before cell stimulation. At the end of incubation, 25 μl of Bright-Glo™ obtained from Promega (Madison, Wis.) was added into each well. Luciferase activity was determined with a luminometer (Luminoskan Ascent®, Thermo-Electron Corp.), at a speed of 100 milliseconds per well.
Response of cells with the expressed receptor to test ligand stimulation was subject to two types of detection: intracellular cAMP accumulation and intracellular Ca2+ flux monitored with fluorescent intensity using a Fluorimetric Image Plate Reader (FLIPR).

GPR78 [4] = biological target: T2, GPR78; assay: direct intracellular cAMP measurement (Meso Scale Discovery kit) in HEK293/cre-luc cells stably transfected with GPR78; type: cell-based; settings: FIG. 2C, read-out: EC50, increase of cAMP level
Method: (§4) Constructs PCR3.1-GPR78 and PCR3.1-GPR26 were transfected into HEK293/cre-luc cells with use of Lipofectamine™ 2000 and cells were selected for G418 resistance. Cells resistant to G418 were further diluted and selected for individual colonies. Cell lines grown from the G418-resistant colonies were screened for positive response with genistein in the Cre-Luciferase cAMP assay.
(§5) Intracellular cAMP was measured directly with a cAMP kit purchased from Meso Scale Discovery (Gaithersburg, Md., Ma6000 cAMP 384-well Kit, Catalog number K210FDD-2). The assay was preformed by following the manufacturer's protocol. Briefly, stable HEK293/cre-luc cells expressing GPR78 or GPR26 were harvested, washed with PBS and resuspended at 300,000/10 μl of assay buffer (from the kit) containing 0.5 mM IBMX. Genistein at appropriate concentrations was diluted in the cAMP assay buffer and 5 μl was added into wells of the assay plate. The mixture was then incubated at room temperature for 30 minutes. Light intensity in assay wells was measured using a MSD SI6000 instrument obtained from Meso Scale Discovery.

GPR26 [5] = biological target: T1, GPR26; assay: cre-luciferase cAMP reporter assay in GPR26-transfected HEK293/cre-luc cells; type: cell-based; settings: cre-luc reporter assay, transient transfection, FIG. 8A; read-out: EC50, activation of GPR26
Method: as §3
Forty hours after transfection, cells were stimulated by adding 5 μl of ligand in 60 μM 4-(3-butoxy-4-methoxy-benzyl)-2-Imidazolidinone in 293 SFM II serum-free media obtained from Gibco (Gaithersburg, Md.), and incubated for 6 hours at 37° C. in a 5% CO2-95% air incubator. […] Luciferase activity was determined with a luminometer (Luminoskan Ascent®, Thermo-Electron Corp.), at a speed of 100 milliseconds per well.
(§6) GPR26, another orphan GPCR, shares 51% identity in the seven transmembrane regions with GPR78 ([19]). […] HEK293/cre-luc cells were transiently transfected with pCR3.1-GPR26 and monitored cAMP levels upon stimulation with genistein. […]

GPR26 [6] = biological target: T1, GPR26; assay: direct intracellular cAMP measurement (Meso Scale Discovery kit) in HEK293/cre-luc cells stably transfected with GPR26; type: cell-based; settings: cells stably expressing GPR26, FIG. 8B
Method: as §4, §5, §6

GPR78 [7] = biological target: T2, GPR78; assay: Ca2+ flux assay (FLIPR) in GPR78-expressing HEK/cre-luc cells; type: cell-based; settings: genistein at concentrations near 100 μM, FIG. 5
From the text: Response of cells with the expressed receptor to test ligand stimulation was subject to two types of detection: intracellular cAMP accumulation and intracellular Ca2+ flux monitored with fluorescent intensity using a Fluorimetric Image Plate Reader (FLIPR). For cAMP measurement, a HEK293 cell line that had been stably transfected with luciferase reporter gene, was used as a host cell transiently transfected with the pCR3.1-GPR78 construct described in Example 1.
(§7) Ca2+ flux measurements were taken to test if GPR78, when activated with genistein, is coupled to the Gq-mediated pathway.

protein tyrosine kinase = settings: literature values; for genistein depending on the substrates used; read-out: IC50, inhibition of protein tyrosine kinase; cited from earlier work
GPR30 = biological target: T3, GPR30 (Homo sapiens, UniProt Q99527); settings: Gβγ-mediated pathway, ref [25]; cited from earlier work
T3 construct: host or cells: MCF-7, MDA-MB-231, SKBR3 (as cited)

protein kinase A = settings: ref [27]; read-out: reported IC50 of H89; cited from earlier work
GPR154 = biological target: T4, GPR154 (Homo sapiens, UniProt Q6W5P4); assay: Ca2+ flux assay (FLIPR), positive control receptor; type: cell-based; settings: FIG. 5
T4 construct: expressed in transfected cells; host or cells: HEK293/cre-luc
T4 sequence (Q6W5P4 1-371): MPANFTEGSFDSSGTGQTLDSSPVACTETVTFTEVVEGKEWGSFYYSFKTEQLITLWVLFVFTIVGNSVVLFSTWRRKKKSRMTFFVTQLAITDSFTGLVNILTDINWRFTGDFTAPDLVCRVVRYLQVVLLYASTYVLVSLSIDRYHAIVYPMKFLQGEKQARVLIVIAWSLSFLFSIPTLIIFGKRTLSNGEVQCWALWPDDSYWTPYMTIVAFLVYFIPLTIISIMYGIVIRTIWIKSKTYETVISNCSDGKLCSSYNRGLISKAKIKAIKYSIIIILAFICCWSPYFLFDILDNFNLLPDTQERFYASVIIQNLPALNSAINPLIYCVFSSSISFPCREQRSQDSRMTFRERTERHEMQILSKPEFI
From the text: as §7

NO synthase (NOS) = NO synthase (NOS) (Mus musculus, UniProt P29477); settings: read-out: IC50, inhibition of NOS; cultured peritoneal macrophages, ref [40]; cited from earlier work
rabbit aortic rings = settings: read-out: IC50, block of acetylcholine-induced relaxation, ref [40]; cited from earlier work
adenylyl cyclase = settings: cell-free enzyme assays, ref [28]; read-out: published IC50; cited from earlier work

T2 sequence (Q96P69 whole entry): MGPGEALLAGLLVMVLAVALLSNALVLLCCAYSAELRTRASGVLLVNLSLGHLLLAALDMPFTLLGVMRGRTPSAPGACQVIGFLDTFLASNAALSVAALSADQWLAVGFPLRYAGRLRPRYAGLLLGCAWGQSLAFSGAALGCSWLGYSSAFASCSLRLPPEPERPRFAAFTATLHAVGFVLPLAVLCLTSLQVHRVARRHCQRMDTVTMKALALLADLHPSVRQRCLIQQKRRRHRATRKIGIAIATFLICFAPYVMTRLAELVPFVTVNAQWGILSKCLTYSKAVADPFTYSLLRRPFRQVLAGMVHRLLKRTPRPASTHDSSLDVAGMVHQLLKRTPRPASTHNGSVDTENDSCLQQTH
T1 sequence (Q8NDV2 whole entry): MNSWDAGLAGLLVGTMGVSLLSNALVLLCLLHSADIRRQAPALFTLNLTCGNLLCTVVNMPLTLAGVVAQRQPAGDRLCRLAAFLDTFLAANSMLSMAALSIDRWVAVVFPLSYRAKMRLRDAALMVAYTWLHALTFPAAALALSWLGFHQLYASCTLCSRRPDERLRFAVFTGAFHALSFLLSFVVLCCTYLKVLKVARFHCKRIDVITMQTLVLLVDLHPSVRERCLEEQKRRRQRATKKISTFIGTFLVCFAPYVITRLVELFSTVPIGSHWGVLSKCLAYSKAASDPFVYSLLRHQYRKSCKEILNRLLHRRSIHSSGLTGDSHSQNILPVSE
T3 sequence (Q99527 whole entry): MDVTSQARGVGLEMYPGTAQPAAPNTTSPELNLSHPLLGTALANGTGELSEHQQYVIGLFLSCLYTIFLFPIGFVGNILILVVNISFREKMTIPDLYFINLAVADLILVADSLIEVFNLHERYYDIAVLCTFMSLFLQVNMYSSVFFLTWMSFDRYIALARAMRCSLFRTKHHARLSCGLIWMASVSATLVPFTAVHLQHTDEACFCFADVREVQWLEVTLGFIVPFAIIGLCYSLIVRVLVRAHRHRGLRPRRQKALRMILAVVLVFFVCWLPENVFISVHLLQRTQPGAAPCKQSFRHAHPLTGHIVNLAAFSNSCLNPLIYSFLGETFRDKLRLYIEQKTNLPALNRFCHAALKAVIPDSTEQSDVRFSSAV
Sequence of NO synthase (NOS) (P29477 whole entry): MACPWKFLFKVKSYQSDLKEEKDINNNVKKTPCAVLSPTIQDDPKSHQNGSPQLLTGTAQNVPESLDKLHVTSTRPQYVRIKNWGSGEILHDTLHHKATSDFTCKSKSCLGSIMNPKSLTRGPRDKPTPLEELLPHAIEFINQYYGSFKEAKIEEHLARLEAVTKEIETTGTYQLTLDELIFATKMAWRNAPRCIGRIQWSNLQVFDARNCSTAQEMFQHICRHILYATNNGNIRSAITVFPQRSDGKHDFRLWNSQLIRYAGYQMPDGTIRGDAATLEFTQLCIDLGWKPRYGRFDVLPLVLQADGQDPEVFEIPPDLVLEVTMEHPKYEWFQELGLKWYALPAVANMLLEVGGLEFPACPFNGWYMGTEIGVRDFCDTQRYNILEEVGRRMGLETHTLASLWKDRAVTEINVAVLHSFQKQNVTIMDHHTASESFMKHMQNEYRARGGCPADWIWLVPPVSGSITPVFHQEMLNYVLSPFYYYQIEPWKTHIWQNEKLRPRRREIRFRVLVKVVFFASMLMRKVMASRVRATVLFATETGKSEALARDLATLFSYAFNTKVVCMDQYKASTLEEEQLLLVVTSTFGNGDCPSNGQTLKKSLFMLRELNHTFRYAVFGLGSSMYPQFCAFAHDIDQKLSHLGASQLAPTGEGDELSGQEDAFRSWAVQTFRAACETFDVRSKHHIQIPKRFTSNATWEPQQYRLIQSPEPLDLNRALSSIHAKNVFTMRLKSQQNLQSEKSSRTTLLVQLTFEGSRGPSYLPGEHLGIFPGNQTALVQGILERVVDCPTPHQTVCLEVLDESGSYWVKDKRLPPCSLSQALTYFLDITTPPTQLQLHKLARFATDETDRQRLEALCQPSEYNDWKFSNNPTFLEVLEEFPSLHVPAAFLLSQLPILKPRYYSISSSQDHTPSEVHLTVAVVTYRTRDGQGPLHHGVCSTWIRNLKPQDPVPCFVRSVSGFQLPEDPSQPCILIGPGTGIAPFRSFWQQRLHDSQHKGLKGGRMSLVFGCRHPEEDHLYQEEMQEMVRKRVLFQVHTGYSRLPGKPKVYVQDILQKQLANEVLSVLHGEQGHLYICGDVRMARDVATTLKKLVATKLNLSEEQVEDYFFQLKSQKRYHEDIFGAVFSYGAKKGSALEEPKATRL

C[n+]1cc2c3c(ccc2c2ccc4cc5c(cc4c21)OCO5)OCO3 [sanguinarine Cl hydrate]
IC50 (GPR26 [1]; cre-luc reporter assay, dose-response curves, read-out: IC50, inhibition of GPR26 activation): 0.26 µM
IC50 (GPR78 [2]; cre-luc reporter assay, dose-response curves, read-out: IC50, inhibition of GPR78 activation): 0.65 µM

O=c1c(-c2ccc(O)cc2)coc2cc(O)cc(O)c12 [genistein]
EC50 (GPR78 [3]): 6 to 10 µM
increase of luciferase activity (cAMP production) compared to the mock transfection control (GPR78 [3]; 25 μM genistein, transiently transfected cells, FIG. 1): more than 8 fold
EC50 (GPR78 [3]; FIG. 2A, read-out: EC50, induction of cAMP): 7 µM
EC50 (GPR78 [4]): ~6 µM
EC50 (GPR26 [5]): ~10 µM
cAMP production (GPR26 [6]): stimulated cAMP production
activation in Ca++ flux assay (GPR78 [7]): not activated
IC50 (protein tyrosine kinase): 1 to 22 µM
potency of GPR30 activation (GPR30): low μM range

COc1ccc(-c2coc3cc(O)cc(O)c3c2=O)cc1 [biochanin A]
cAMP level compared to buffer control / genistein (GPR78 [3]): only slightly induced cAMP levels

CC(=O)[C@H]1CC[C@H]2[C@@H]3CCC4=CC(=O)CC[C@]4(C)[C@H]3CC[C@]12C [progesterone]
cAMP stimulation (GPR78 [3]): No cAMP stimulation was observed

Cl.Cl.O=S(=O)(NCCNCC=Cc1ccc(Br)cc1)c1cccc2cnccc12 [H89, N-[2-(p-bromocinnamylamino)ethyl]-5-isoquinolinesulfonamide dihydrochloride]
effect on genistein-induced cAMP (GPR78 [3]; 10 μM H89, 30 min pre-incubation): Most of genistein-induced cAMP was reduced
effect on basal (constitutive) cAMP level (GPR78 [3]; 10 μM H89, compared to cells with no H89, FIG. 6A): decrease of the basal cAMP level by approximately half
effect on genistein-induced cAMP (GPR78 [3]; 100 μM H89, 30 min pre-incubation): all cAMP accumulation was abolished
effect on basal (constitutive) cAMP level (GPR78 [3]; 100 μM H89, FIG. 6A): completely inhibited cAMP accumulation
IC50 (protein kinase A): 0.05 µM

O=c1c(-c2ccc(O)cc2)coc2cc(O)ccc12 [daidzein]
cAMP level compared to buffer control / genistein (GPR78 [3]): significantly increased cAMP level comparable to that by genistein

neuropeptide S (SFRNGVGTGMKKTSFQRAKS) [ligand of GPR154, positive control in Ca2+ flux assay]
response in Ca2+ flux assay (GPR154): responded to neuropeptide S acutely

CC(C)(C)c1cc(C=C(C#N)C#N)cc(C(C)(C)C)c1O [Tyrphostin A9]
cAMP level compared with GPR78-expressing cells stimulated with buffer (Basal) (GPR78 [3]; FIG. 1): not higher than the level in GPR78-expressing cells stimulated with buffer
IC50 (protein tyrosine kinase): 0.04 to 9 µM

N#C/C(=C\c1ccc(O)c(O)c1)C(=O)NCc1ccccc1 [Tyrphostin B42]
cAMP level compared with GPR78-expressing cells stimulated with buffer (Basal) (GPR78 [3]; FIG. 1): not higher than the level in GPR78-expressing cells stimulated with buffer
IC50 (protein tyrosine kinase): 20 µM

C[C@]12CC[C@H]3[C@@H](CCC4=CC(=O)CC[C@@]43C)[C@@H]1CC[C@@H]2O [testosterone]
cAMP stimulation (GPR78 [3]): No cAMP stimulation was observed

c1ccc2c(c1)[I+]c1ccccc1-2 [diphenyleneiodonium Cl, Diphenyleneiodonium Cl]
IC50 (GPR26 [1]): 39 µM
IC50 (GPR78 [2]): 65 µM
IC50 (NO synthase (NOS)): 0.03 µM
IC50 (rabbit aortic rings): 0.3 µM

Nc1ncnc2c1ncn2C1CCCO1 (centres unmarked) [SQ22536, 9-(Tetrahydro-2-furanyl)-9H-purin-6-amine]
reduction of genistein-stimulated cAMP (GPR78 [3]; SQ22536 at 20 μM pre-incubated, FIG. 7): 25%
reduction of cAMP level resulting from constitutive activity of GPR78 (GPR78 [3]; SQ22536 at 20 μM pre-incubated, absence of genistein, FIG. 7): 34%
IC50 (adenylyl cyclase): 20 µM
